Like-named read-outs stand apart in the source and are kept apart here.
Experiments:
[1] = biological target: human Bruton's Tyrosine Kinase (Btk) (Homo sapiens (Human), UniProt Q06187); experiment: Recombinant Human Bruton's Tyrosine Kinase (Btk) Inhibition Assay (HTRF KinEASE-TK); type: biochemical; settings: read-out: hBTK IC50
[2] = test system: mouse splenocytes; experiment: Inhibition of B Cell Activation as Measured by CD69 Expression in Mouse Splenocytes; type: cell-based; settings: Splenocyte
Experimental: Inhibition of B Cell Activation as Measured by CD69 Expression in Mouse Splenocytes:
To test the effect of BTK inhibitors in suppressing B-cell receptor (BCR) mediated activation of B cells, we developed a flow cytometry based assay to analyze CD69 expression in B cell population among total splenocyte from the mouse. […] Finally, cell were cultured in RPMI medium with 10% FBS.
Test compounds were diluted half log starting from 2 mM in 100% DMSO (200×). 1×10^5 splenocytes were incubated with 1 uL of diluted test compounds in 200 uL culture medium in a U-bottom 96 well plate (Greiner) at 37° C. with 5% CO2 for 30 mins. Control wells received 1 uL of 100% DMSO without any compound. The cells were stimulated with 3 ug/mL goat anti-mouse IgM (Sigma, cat#M8644) and incubated for 18-20 hrs. […] Then the cells were washed 3 times with PBS with 1% FBS and analyzed by Guava Easycyte Mini flow cytometer system (Millipore). Flow cytometry data were analyzed using Weasel software (WEHI, Melbourne). First B cells were gated using CD19 markers. Then expression of CD69 was analyzed as percentage of CD69+ve cells within CD19. Percent activity for each data point was calculated using following formula: […]
Percentage activity was fit using sigmoid dose response with variable slope logistic equation in Graph-pad Prism 5 software to determine inhibition constant 50 (IC50).

[3] = 20 ng/ml rhBtk, 77 μM ATP (KM), 1 μM TK-Biotin substrate, 90 min
[4] = C57/BL6 splenocytes, 3 ug/mL goat anti-mouse IgM, 18-20 hrs, CD69+ve cells within CD19, read-out: Mouse spleenocyte IC50

Chain of human Bruton's Tyrosine Kinase (Btk) (Q06187 whole entry): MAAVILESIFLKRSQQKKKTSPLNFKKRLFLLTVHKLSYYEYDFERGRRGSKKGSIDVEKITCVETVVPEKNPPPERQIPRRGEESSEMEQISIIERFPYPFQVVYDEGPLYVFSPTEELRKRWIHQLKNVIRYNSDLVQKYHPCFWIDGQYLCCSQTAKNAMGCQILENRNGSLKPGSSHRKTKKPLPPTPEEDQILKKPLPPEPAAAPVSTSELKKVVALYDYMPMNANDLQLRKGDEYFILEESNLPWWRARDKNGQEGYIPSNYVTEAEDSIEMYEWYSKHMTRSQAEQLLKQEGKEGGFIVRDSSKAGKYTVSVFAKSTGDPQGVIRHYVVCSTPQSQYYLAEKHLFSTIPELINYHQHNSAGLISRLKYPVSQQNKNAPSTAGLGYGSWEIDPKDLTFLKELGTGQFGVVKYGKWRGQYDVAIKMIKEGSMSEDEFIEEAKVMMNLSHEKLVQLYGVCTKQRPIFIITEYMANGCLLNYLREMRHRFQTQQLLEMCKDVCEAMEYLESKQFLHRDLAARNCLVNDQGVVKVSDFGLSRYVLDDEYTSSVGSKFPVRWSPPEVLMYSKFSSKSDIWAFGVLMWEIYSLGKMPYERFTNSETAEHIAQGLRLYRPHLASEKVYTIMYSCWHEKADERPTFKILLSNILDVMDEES

SMILES	IC50 [1, 3]	IC50 [2, 4]	IC50 [1]	IC50 ([2]; Mus musculus, read-out: Mouse spleenocyte IC50 (nM))
Cc1c(-c2ncnc3[nH]c(-c4ccc(CN5CCNCC5)cc4)cc23)cccc1N1CCOc2cc(C3CC3)ccc2C1=O [Example A-1, 8-cyclopropyl-4-[2-methyl-3-[6-[4-(piperazin-1-ylmethyl)phenyl]-7H-pyrrolo[2,3-d]pyrimidin-4-yl]phenyl]-2,3-dihydro-1,4-benzoxazepin-5-one]	7 nM	99 nM		
Cc1c(-c2ncnc3[nH]c(-c4ccc(CN5CCNCC5)cc4)cc23)cccc1N1CCc2cc(C3CC3)ccc2C1=O [Example A-2, 6-cyclopropyl-2-[2-methyl-3-[6-[4-(piperazin-1-ylmethyl)phenyl]-7H-pyrrolo[2,3-d]pyrimidin-4-yl]phenyl]-3,4-dihydroisoquinolin-1-one]	7 nM	165 nM		
CN1CCN(Cc2ccc(-c3cc4c(-c5cccc(N6CCOc7cc(C8CC8)ccc7C6=O)c5CO)ncnc4[nH]3)cc2)CC1 [Example B-1, 8-cyclopropyl-4-[2-(hydroxymethyl)-3-[6-[4-[(4-methylpiperazin-1-yl)methyl]phenyl]-7H-pyrrolo[2,3-d]pyrimidin-4-yl]phenyl]-2,3-dihydro-1,4-benzoxazepin-5-one]	6 nM	40 nM		
Cc1c(-c2ncnc3[nH]c(-c4ccc(CN5CCN(C)CC5)cc4)cc23)cccc1N1CCOc2cc(C3CC3)ccc2C1=O [Example B-2]	31 nM	200 nM		
O=C1c2ccc(C3CC3)cc2OCCN1c1cccc(-c2ncnc3[nH]c(-c4ccc(CN5CCOCC5)cc4)cc23)c1CO [Example B-5, 8-cyclopropyl-4-[2-(hydroxymethyl)-3-[6-[4-(morpholinomethyl)phenyl]-7H-pyrrolo[2,3-d]pyrimidin-4-yl]phenyl]-2,3-dihydro-l,4-benzoxazepin-5-one]	8 nM	60 nM		
CC1(O)CCN(Cc2ccc(-c3cc4c(-c5cccc(N6CCOc7cc(C8CC8)ccc7C6=O)c5CO)ncnc4[nH]3)cc2)CC1 [Example B-6, 8-cyclopropyl-4-[2-(hydroxymethyl)-3-[6-[4-[(4-hydroxy-4-methyl-1-piperidyl)methyl]phenyl]-7H-pyrrolo[2,3-d]pyrimidin-4-yl]phenyl]-2,3-dihydro-1,4-benzoxazepin-5-one]			7 nM	81 nM
CCN1CCN(Cc2ccc(-c3cc4c(-c5cccc(N6CCOc7cc(C8CC8)ccc7C6=O)c5CO)ncnc4[nH]3)cc2)CC1 [Example B-7, 8-cyclopropyl-4-[3-[6-[4-[(4-ethylpiperazin-1-yl)methyl]phenyl]-7H-pyrrolo[2,3-d]pyrimidin-4-yl]-2-(hydroxymethyl)phenyl]-2,3-dihydro-1,4-benzoxazepin-5-one]	6 nM	52 nM		
CN1CCN(Cc2ccc(-c3cc4c(-c5cccc(-n6ncc7cc(C8CC8)ccc7c6=O)c5CO)ncnc4[nH]3)cc2)CC1 [Example B-10, 6-cyclopropyl-2-[2-(hydroxymethyl)-3-[6-[4-[(4-methylpiperazin-1-yl)methyl]phenyl]-7H-pyrrolo[2,3-d]pyrimidin-4-yl]phenyl]phthalazin-1-one]	2 nM	20 nM		
CN1CCN(Cc2ccc(-c3cc4c(-c5cccc(N6CCOc7cc(C8CC8)ccc7C6=O)c5CO)ccnc4[nH]3)cc2)CC1 [Example B-13, 8-cyclopropyl-4-[2-(hydroxymethyl)-3-[2-[4-[(4-methylpiperazin-1-yl)methyl]phenyl]-1H-pyrrolo[2,3-b]pyridin-4-yl]phenyl]-2,3-dihydro-1,4-benzoxazepin-5-one]	3 nM	9 nM		
N#CC1CCN(Cc2ccc(-c3cc4c(-c5cccc(N6CCOc7cc(C8CC8)ccc7C6=O)c5CO)ncnc4[nH]3)cc2)CC1 [Example B-14, 1-[[4-[4-[3-(8-cyclopropyl-5-oxo-2,3-dihydro-1,4-benzoxazepin-4-yl)-2-(hydroxymethyl)phenyl]-7H-pyrrolo[2,3-d]pyrimidin-6-yl]phenyl]methyl]piperidine-4-carbonitrile]	7 nM	96 nM		
CCN1CCN(Cc2ccc(-c3cc4c(-c5cccc(N6CCOc7cc(C8CC8)ccc7C6=O)c5CO)ccnc4[nH]3)cc2)CC1 [Example B-16, 8-cyclopropyl-4-[3-[2-[4-[(4-ethylpiperazin-1-yl)methyl]phenyl]-1H-pyrrolo[2,3-b]pyridin-4-yl]-2-(hydroxymethyl)phenyl]-2,3-dihydro-1,4-benzoxazepin-5-one]	4 nM	17 nM		
CC1(O)CN(Cc2ccc(-c3cc4c(-c5cccc(N6CCOc7cc(C8CC8)ccc7C6=O)c5CO)ccnc4[nH]3)cc2)C1 [Example B-17]	6 nM	74 nM		
CN1CCN(Cc2ccc(-c3cc4c(-c5cccc(N6CCOc7cc(C8CC8)ccc7C6=O)c5CO)ccnc4[nH]3)cn2)CC1 [Example B-20, 8-cyclopropyl-4-[2-(hydroxymethyl)-3-[2-[6-[(4-methylpiperazin-1-yl)methyl]-3-pyridyl]-1H-pyrrolo[2,3-b]pyridin-4-yl]phenyl]-2,3-dihydro-1,4-benzoxazepin-5-one]	7 nM	67 nM		
Cc1c(-c2ncnc3[nH]c(-c4ccc(CN5CCC(O)CC5)cc4)cc23)cccc1N1CCc2cc(C3CC3)ccc2C1=O [Example B-22, 6-cyclopropyl-2-[3-[6-[4-[(4-hydroxy-1-piperidyl)methyl]phenyl]-7H-pyrrolo[2,3-d]pyrimidin-4-yl]-2-methyl-phenyl]-3,4-dihydroisoquinolin-1-one]	32.5 nM	137 nM		
CN1CCN(c2ccc(-c3cc4c(-c5cccc(-n6ccc7cc(C8CC8)ccc7c6=O)c5CO)ncnc4[nH]3)cc2)CC1 [Example C-1, 6-cyclopropyl-2-[2-(hydroxymethyl)-3-[6-[4-(4-methylpiperazin-1-yl)phenyl]-7H-pyrrolo[2,3-d]pyrimidin-4-yl]phenyl]isoquinolin-1-one]	5 nM	9 nM		
CN1CCN(c2ccc(-c3cc4c(-c5cccc(N6CCOc7cc(C8CC8)ccc7C6=O)c5CO)ncnc4[nH]3)cc2)CC1 [Example C-2, 8-cyclopropyl-4-[2-(hydroxymethyl)-3-[6-[4-(4-methylpiperazin-1-yl)phenyl]-7H-pyrrolo[2,3-d]pyrimidin-4-yl]phenyl]-2,3-dihydro-1,4-benzoxazepin-5-one]	12 nM	36 nM		
Cc1c(-c2ncnc3[nH]c(-c4ccc(N5CCN(C)CC5)cc4)cc23)cccc1N1CCOc2cc(C3CC3)ccc2C1=O [Example C-3, 8-cyclopropyl-4-[2-methyl-3-[6-[4-(4-methylpiperazin-1-yl)phenyl]-7H-pyrrolo[2,3-d]pyrimidin-4-yl]phenyl]-2,3-dihydro-1,4-benzoxazepin-5-one]	21 nM	175 nM		
CCN1CC(n2cc(-c3cc4c(-c5cccc(N6CCOc7cc(C8CC8)ccc7C6=O)c5CO)ccnc4[nH]3)cn2)C1 [Example D-10, 8-cyclopropyl-4-[3-[2-[1-(1-ethylazetidin-3-yl)pyrazol-4-yl]-1H-pyrrolo[2,3-b]pyridin-4-yl]-2-(hydroxymethyl)phenyl]-2,3-dihydro-1,4-benzoxazepin-5-one]		76 nM		
O=C1c2c(F)cc(C3CC3)cc2OCCN1c1cc(F)cc(-c2ccnc3[nH]c(C4=CCN(C5COC5)CC4)cc23)c1CO [Example P-16, 8-cyclopropyl-6-fluoro-4-[5-fluoro-2-(hydroxymethyl)-3-[2-[1-(oxetan-3-yl)-3,6-dihydro-2H-pyridin-4-yl]-1H-pyrrolo[2,3-b]pyridin-4-yl]phenyl]-2,3-dihydro-1,4-benzoxazepin-5-one]		9 nM		

Reference: US9233983B2, “Substituted hetero-bicyclic compounds, compositions and medicinal applications thereof” (ADVINUS THERAPEUTICS LIMITED, priority 2012, dated 2016)
